We go through 16 molecules from paper PMC8001558 (Viruses, 2021).

Read-outs that look alike come from different tables or passages of the source.

Series [1] concerns the target MNV CW1 P-domain (Norovirus, UniProt Q80J94, K296E). Nature of the series: CSP NMR binding experiment with MNV P-domain. More on the design: species or system murine norovirus (MNV). As to conditions: MNV P-domains saturated with GCDCA.
The target of series [2] is P-domain of the VP1 capsid protein of human norovirus GII.4 strain VA387 (human norovirus GII.4 strain VA387).
Series [3] concerns the target GII.4 MI001 (N/N) P-dimers (Norovirus Hu/GII.4/MI001/2011/USA, UniProt S5FWF8). As to the kind of experiment: biochemical. It is filed as binding. The settings on record: CSP NMR titration; 75 mM sodium phosphate, 100 mM NaCl (pH 7.3); 220 µM protein.
For series [4], the system named is VA387 P-dimers. On the set-up: method as in ref 31 = [31]. The settings on record: MS based data; cited from earlier work.
Series [5] has as its target P-domain of the VP1 capsid protein of human norovirus GII.4 strain MI001 (human norovirus GII.4 strain MI001).
In series [6] the test system is MNV07 P-domain. It counts as binding.
Series [7] has as its target GII.4 Saga (P-domain) (Norovirus GII.4, UniProt B5BTR7). Nature of the series: Re-evaluation of previously reported STD NMR titrations, one-site binding model. More on the design: species or system human norovirus (HuNoV).
Series [8] addresses GII.10 P-dimers. On the set-up: method as in ref 28 = [28]. As to conditions: STD NMR titrations stopped at first step of the curve; cited from earlier work.
For series [9], the system named is GII.4 VA387 (N/N) P-dimers. It is filed as binding. As to conditions: CSP NMR; buffer B: 75 mM sodium phosphate, 100mM NaCl (pH 7.3); 170 µM protein; 298 K; listed as 3′SL.
For series [10], the target named is P-domain of the VP1 capsid protein of murine norovirus strain MNV07 (murine norovirus strain MNV07).
The target in series [11] is GII.4 Saga (N/N) P-dimers (Norovirus GII.4, UniProt B5BTR7). As to the kind of experiment: biochemical. It is filed as binding.
The mark [12] stands for this setting: 25 mM Tris-d11 pH* 7.40, 300 mM NaCl, 298 K, refit of titration data of ref [2], read-out: KD in mM (reevaluated).

Consider `[Cl-].[Cl-].[Mg+2]` [Mg^2+], for which, in [1], the “binding of bivalent metal ions” value is on record as “detected binding”.

The term stoichiometry N denotes a count of units in the complex or per binding partner. Regarding “P-domain of the VP1 capsid protein of human norovirus GII.4 strain VA387 (domain or fragment)”, in series [2], the stoichiometry N was 2.

What is called Kd is the constant that tells how readily two partners part at equilibrium. The molecule `C[C@@H]1O[C@@H](O[C@@H]2[C@@H](O[C@H]3O[C@H](CO)[C@H](O)[C@H](O)[C@H]3O)[C@@H](O)[C@@H](CO)O[C@@H]2N=[N+]=[N-])[C@@H](O)[C@H](O)[C@@H]1O` [B-Tri 3, blood group B trisaccharide (azido group at the anomeric position)] gave an equilibrium dissociation constant (Kd) in series [3] of 4.3 ± 0.4 mM.

As to `CC(=O)N[C@H]1[C@H]([C@H](O)[C@H](O)CO)O[C@@](OC[C@H]2O[C@@H](O[C@H]3[C@H](O)[C@@H](O)[C@H](O)O[C@@H]3CO)[C@H](O)[C@@H](O)[C@H]2O)(C(=O)O)C[C@@H]1O` [6′-sialyllactose, reference compound], in [4], the “binding to VA387 P-dimers” value was “neither 3′-sialyllactose nor 6′-sialyllactose bind”.

Take “P-domain of the VP1 capsid protein of human norovirus GII.4 strain MI001 (domain or fragment)”: the stoichiometry N in series [5] amounted to 2.

As to `[Mn+2]` [Mn^2+], the “binding of bivalent metal ions” value in series [1] is “detected binding”.

Regarding `CC(CCC(=O)NCC(=O)O)C1CCC2C3C(O)CC4CC(O)CCC4(C)C3CCC12C` (centres unmarked) [GCDCA, glycochenodeoxycholic acid, reference compound], in series [6] (80 µM protein, 20 mM sodium acetate buffer (pH 5.3), 250 µM GCDCA, 2 mM 3′SL, 298 K, 600 MHz), the “STD effects (saturation transfer to ligand)” value is listed as “show STD effects”.

In turn, `O=C(O)CC(O)(CC(=O)O)C(=O)O` [Citrate, reference compound] yielded an equilibrium dissociation constant (Kd) in series [7] (KD in mM (reevaluated)) of 22.9 ± 2.7 mM. The dissociation constants result in [8] is “sub millimolar”.

`CO[C@@H]1O[C@@H](C)[C@@H](O)[C@@H](O)[C@@H]1O` [Fuc 8, methyl α-L-fucopyranoside]: the equilibrium dissociation constant (Kd) was found to be 15.1 ± 1.6 mM in series [7] (25 mM BisTris-d19 pH* 6.5, 300 mM NaCl, 298 K, refit of titration data of ref [2], read-out: KD in mM (reevaluated)); 21.9 ± 2.6 mM in series [7] (25 mM PBS pH* 5.50, 300 mM NaCl, 298 K, refit of titration data of ref [2], read-out: KD in mM (reevaluated)); 18.4 ± 2.6 mM in series [7] (25 mM PBS pH* 6.50, 300 mM NaCl, 298 K, refit of titration data of ref [2], read-out: KD in mM (reevaluated)); 15.6 ± 1.9 mM in series [7] (25 mM PBS pH* 7.40, 300 mM NaCl, 298 K, refit of titration data of ref [2] (Mallagaray et al., Angew Chem Int Ed 2015), read-out: KD in mM (reevaluated)); 24.5 ± 4.1 mM in series [7] (25 mM sodium acetate-d3, pH* 4.50, 300 mM NaCl, 298 K, refit of titration data of ref [2], read-out: KD in mM (reevaluated)).

`CO[C@@H]1O[C@H](CO)[C@H](O)[C@H](O[C@H]2O[C@H](CO)[C@H](O)[C@H](O)[C@H]2O)[C@H]1O[C@@H]1O[C@@H](C)[C@@H](O)[C@@H](O)[C@@H]1O` [b -Methyl glycoside of B-trisaccharide, reference compound]: the Kd in series [7] (setting [12]) amounted to 5.2 ± 0.5 mM.

One may read the melting point as the temperature, or range, at which the solid turns liquid. In turn, `C[C@@H]1O[C@@H](O[C@@H]2[C@@H](O[C@H]3O[C@H](CO)[C@H](O)[C@H](O)[C@H]3O)[C@@H](O)[C@@H](CO)O[C@@H]2N=[N+]=[N-])[C@@H](O)[C@H](O)[C@@H]1O` (hydrate or solvate) [B-Tri 3, blood group B trisaccharide (azido group at the anomeric position)] showed a melting point of 204 to 206 °C.

With `C[C@H](O)[C@@H](O)[C@@H](O)[C@H](O)C=O` [L-fucose], the dissociation constants result in [8] was “sub millimolar”.

Turning to `CC(=O)N[C@H]1[C@H]([C@H](O)[C@H](O)CO)O[C@@](O[C@H]2[C@@H](O)[C@@H](CO)O[C@@H](O[C@H]3[C@H](O)[C@@H](O)[C@H](O)O[C@@H]3CO)[C@@H]2O)(C(=O)O)C[C@@H]1O` [3′SL 6, 3′-sialyllactose], the “binding (tested negative/positive)” value in series [9] is on record as “no binding”; in series [6] (STD, buffer B (20 mM sodium acetate, 100 mM NaCl, pH 5.3), with GCDCA, no EDTA, no Ca2+, listed as 3′SL), “no saturation transfer”. Further, the “binding to VA387 P-dimers” value in series [4] was “neither 3′-sialyllactose nor 6′-sialyllactose bind”.

For “P-domain of the VP1 capsid protein of murine norovirus strain MNV07 (domain or fragment)”, the stoichiometry N in series [10] was determined as 2.

On to `CC(=O)N[C@H]1[C@@H](O[C@H]2[C@@H](O)[C@@H](CO)O[C@@H](O)[C@@H]2O[C@@H]2O[C@@H](C)[C@@H](O)[C@@H](O)[C@@H]2O)O[C@H](CO)[C@H](O)[C@@H]1O` [A-Tri 2, blood group A trisaccharide], for which binding in series [11] was characterised by a dissociation constant (Kd) of 4.3 ± 0.4 mM.

For `CO[C@@H]1O[C@H](CO)[C@H](O)[C@H](O)[C@H]1O[C@@H]1O[C@@H](C)[C@@H](O)[C@@H](O)[C@@H]1O` [H-Dis 12, blood group H-disaccharide], the dissociation constant (Kd) in series [7] (setting [12]) is 26.5 ± 2.7 mM.
